Measurements: paper PMC9942619, “Oseltamivir phosphate for suspension is bioequivalent to TAMIFLU in healthy volunteers: a randomized, open-label clinical study” (BMC Pharmacology & Toxicology, 2023)

Columns and labels:
[1] = Single-dose crossover pharmacokinetics of oseltamivir and oseltamivir carboxylate in plasma (HPLC-MS/MS, non-compartmental analysis); assay type: in vivo, healthy Chinese subjects; conditions: fed vs fasting; plasma analyte
Excerpt: This study was developed in healthy subjects in the fasting or postprandial state, using a single-dose, randomized, open-label, two-period, two-sequence, self-crossover design. It authorized by the Ethics Committee of the First Affiliated Hospital of Bengbu Medical College. The ethical approval process complies with the requirements of Good Clinical Practice (GCP), the Declaration of Helsinki and relevant Chinese laws and regulations. Registration number CTR20200764 at 26-Apr-2020. http://www.chinadrugtrials.org.cn/clinicaltrials.searchlist.dhtml.
According to "the Guiding Principles for Human Bioavailability and Bioequivalence test of Pharmaceutical Preparations (2015 Edition)", "the Guiding Principles for Human Bioequivalence Research of Chemical Drug Imitations with Pharmacokinetic Parameters as the End Point Evaluation Indicators", and recommended dose in Tamiflu® instructions, the single oral dose of 75 mg/12.5 mL was determined for the reference preparation and test preparation of this study. […] Assuming one-sided α = 0.05, β = 0.2, %CV of 31.87%, a mean ratio F between the test product and reference product of 1, and the bioequivalence interval of 80.00–125.00%, the sample size of the two-period, crossover study design is 35 cases, calculated by PASS software. […] The quantitative linear range of oseltamivir is 0.500–200 ng/mL, and the LLOQ is 0.500 ng/mL. The quantitative linear range of oseltamivir carboxylate is 4.00–800 ng/mL, and the LLOQ is 4.00 ng/mL.
Pharmacokinetic parameters of oseltamivir and oseltamivir carboxylate were calculated using Phoenix WinNonlin (Pharsight Corporation, 8.3.1) based on individual blood concentrations and sampling time (calculated by actual sampling time) using non-compartmental analysis (NCA), Cmax, Tmax, AUC0-t, AUC0-∞, t1/2, λz, as well as %AUCex for oseltamivir and oseltamivir carboxylate were included. […]

[2] = set-up: method as in doi:10.1002/14651858.CD008965.pub4, PMID 25640810, PMID 12908848; conditions: cited from earlier work
influenza pneumonia = system: influenza pneumonia; set-up: method as in PMID 33718494; conditions: early treatment compared with late treatment; cited from earlier work
[3] = set-up: method as in earlier work; conditions: used for sample size estimation; cited from earlier work

Compound | Cmax, AUC0-t under fed conditions [1] | change of AUC0-∞ after feeding [1] | incidence of other side effects (conjunctivitis, rhinorrhagia, allergy, cardiac arrhythmias, gastrointestinal bleeding, neuropsychiatric events etc.) [2] | incidence of nausea ([2]; most common side effects) | incidence of vomiting ([2]; most common side effects) | reduction in ICU mortality (influenza pneumonia) | intra-individual coefficient of variation (%CV) of AUC [3] | intra-individual coefficient of variation (%CV) of Cmax [3]
CCC(CC)O[C@@H]1C=C(C(=O)O)C[C@H](N)[C@H]1NC(C)=O [oseltamivir carboxylate] | lowered | decreases | – | – | – | – | – | –
CCOC(=O)C1=C[C@@H](OC(CC)CC)[C@H](NC(C)=O)[C@@H](N)C1 [oseltamivir phosphate] | – | – | < 1% | 10% | 2–15% | – | – | –
CCOC(=O)C1=C[C@@H](OC(CC)CC)[C@H](NC(C)=O)[C@@H](N)C1 [oseltamivir] | – | increases | – | – | – | 33% | 7.24–7.35% | 21.16–31.87%
